Experiments:
[1] = molecular target: Carbonic anhydrase 1 (Homo sapiens, UniProt P00915)
Description: Inhibition constant against human carbonic anhydrase I

[2] = molecular target: Carbonic anhydrase 2 (Homo sapiens, UniProt P00918)
Description: Inhibition constant against human carbonic anhydrase II

[3] = molecular target: Carbonic anhydrase 9 (Homo sapiens, UniProt Q16790)
Description: Inhibition constant against human carbonic anhydrase IX

[4] = molecular target: Carbonic anhydrase 12 (Homo sapiens, UniProt O43570)
Description: Inhibition constant against human carbonic anhydrase XII

[5] = tested as the Zn salt or complex

Chain of Carbonic anhydrase 12 (O43570 whole entry): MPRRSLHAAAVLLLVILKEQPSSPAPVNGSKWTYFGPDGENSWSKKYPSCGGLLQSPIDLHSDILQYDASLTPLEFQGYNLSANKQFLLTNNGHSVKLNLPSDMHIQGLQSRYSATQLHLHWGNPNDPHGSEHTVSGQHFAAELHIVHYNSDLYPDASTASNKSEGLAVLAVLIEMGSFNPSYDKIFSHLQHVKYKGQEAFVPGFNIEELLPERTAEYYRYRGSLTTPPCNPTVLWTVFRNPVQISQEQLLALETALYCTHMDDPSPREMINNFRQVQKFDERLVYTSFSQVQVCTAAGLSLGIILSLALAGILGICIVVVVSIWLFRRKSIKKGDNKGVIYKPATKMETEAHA
Chain of Carbonic anhydrase 1 (P00915 whole entry): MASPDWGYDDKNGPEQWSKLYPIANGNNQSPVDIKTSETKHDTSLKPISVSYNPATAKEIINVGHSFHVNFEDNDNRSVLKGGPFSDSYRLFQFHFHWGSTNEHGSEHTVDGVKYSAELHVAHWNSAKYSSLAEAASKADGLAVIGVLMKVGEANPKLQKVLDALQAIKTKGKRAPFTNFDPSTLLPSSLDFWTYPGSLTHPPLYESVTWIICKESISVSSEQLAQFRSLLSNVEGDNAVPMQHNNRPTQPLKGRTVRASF

Row | Compound | Ki [3] | Ki [3, 5] | further results
1 | Cc1ccc2occ(/C=N/c3ccc(S(=O)(=O)N=C(N)N)cc3)c(=O)c2c1 | > 1 µM | – | Ki [1]: > 1 µM; Ki [2]: > 1 µM; Ki [4]: > 1 µM
2 | Cc1ccc2occ(/C=N/CCc3ccc(S(N)(=O)=O)cc3)c(=O)c2c1 [listing 1 of 2 here] | 0.037 µM | – | –
3 | NS(=O)(=O)c1ccc(C/N=C/c2coc3ccccc3c2=O)cc1 | 0.032 µM | – | –
4 | Cc1ccc2occ(/C=N/c3ccc(S(N)(=O)=O)cc3)c(=O)c2c1 [listing 1 of 2 here] | – | 0.0068 µM | –
5 | Cc1ccc2occ(/C=N/CCc3ccc(S(N)(=O)=O)cc3)c(=O)c2c1 [listing 2 of 2 here] | – | 0.0082 µM | –
6 | NS(=O)(=O)c1ccc(CNCc2coc3ccccc3c2=O)cc1 | – | 0.0081 µM | –
7 | Cc1ccc2occ(CNc3ccc(S(N)(=O)=O)cc3)c(=O)c2c1 | – | 0.015 µM | –
8 | Cc1ccc2occ(CNCCc3ccc(S(N)(=O)=O)cc3)c(=O)c2c1 | – | 0.012 µM | –
9 | N=C(N)NS(=O)(=O)c1ccc(/N=C/c2coc3ccccc3c2=O)cc1 | > 1 µM | – | Ki [1]: > 1 µM; Ki [2]: > 1 µM; Ki [4]: > 1 µM
10 | Cc1ccc2occ(/C=N/c3ccc(S(N)(=O)=O)cc3)c(=O)c2c1 [listing 2 of 2 here] | 0.048 µM | – | –
11 | NS(=O)(=O)c1ccc(C/N=C/c2coc3ccccc3c2=O)cc1 (stereo in doubt; 21) | – | 0.0063 µM | –

More lines, main results first:

Row | Ki [3] | Ki [3, 5] | Compound | further results
12 | 0.032 µM | – | Cc1ccc2occ(/C=N/c3cc(C(F)(F)F)c(S(N)(=O)=O)cc3S(N)(=O)=O)c(=O)c2c1 | –
13 | – | 0.01 µM | NS(=O)(=O)c1ccc(NCc2coc3ccccc3c2=O)cc1 | –
14 | – | 0.0073 µM | NS(=O)(=O)c1ccc(CCNCc2coc3ccccc3c2=O)cc1 | –
15 | – | 0.014 µM | Cc1ccc2occ(CNCc3ccc(S(N)(=O)=O)cc3)c(=O)c2c1 | –
16 | 0.026 µM | – | NS(=O)(=O)c1ccc(CC/N=C/c2coc3ccccc3c2=O)cc1 | –
17 | – | > 1 µM | NS(=O)(=O)c1ccc(C/N=C/c2coc3ccccc3c2=O)cc1 (stereo in doubt; 20) | –

— ChEMBL document CHEMBL1139568, “Carbonic anhydrase inhibitors. Inhibition of cytosolic/tumor-associated carbonic anhydrase isozymes I, II, IX, and XII with Schiff's bases incorporating chromone and aromatic sulfonamide moieties, and their zinc complexes” (Bioorg Med Chem Lett, 2005)
